Test results as given in PMC4897634, “Design of an α-helical antimicrobial peptide with improved cell-selective and potent anti-biofilm activity” (Scientific Reports, 2016).
Where no end group is shown, it is not given here.

How the values were obtained:
[1] = system: Escherichia coli (1.8732); assay: Antimicrobial activity, broth microdilution MIC; type: cell-based; conditions: modified CLSI broth microdilution, LB medium, 1 × 10^6 CFU/ml, 37 °C, 18 to 20 hours, absorbance 600 nm
Description: (§1) The antibacterial activities of the peptides against three Gram-negative bacteria and three Gram-positive bacteria strains were measured using a modified version of the Clinical Laboratory and Standards Institute (CLSI) broth microdilution method as described previously. Three Gram-negative bacteria, Escherichia coli (1.8732), Pseudomonas aeruginosa (1.2421), and Klebsiella pneumonia (1.1736), and three Gram-positive bacteria, Staphylococcus aureus (1.8721), Staphylococcus epidermidis (1.4260), and Bacillus subtilis (1.3376), were purchased from the China General Microbiological Culture Collection Centre (CGMCC). Briefly, bacteria were grown in liquid LB medium (tryptone, 10 g/L, yeast extract, 5 g/L and NaCl, 10 g/L) at 37 °C to mid-log phase, and the bacteria were diluted to 1 × 10^6 colony-forming units (CFU)/ml. The peptides were serially diluted with phosphate-buffered saline (PBS), and 50 μl diluted peptides were added to 50 μl of the bacterial suspension in 96-well plate (Corning Inc., Lowell, MA, USA). After incubation at 37 °C for 18 to 20 hours, the absorbance of each well was recorded using a multi-well microplate reader (SpectraMax M5; Molecular Devices, Sunnyvale, CA, USA) at 600 nm. The lowest concentration at which the peptide inhibited complete growth of the bacteria was taken as the minimal inhibitory concentration (MIC).

[2] = system: Staphylococcus aureus (1.8721); assay: Antimicrobial activity, broth microdilution MIC; type: cell-based; conditions: modified CLSI broth microdilution, LB medium, 1 × 10^6 CFU/ml, 37 °C, 18 to 20 hours, absorbance 600 nm
Description: as §1

[3] = system: Pseudomonas aeruginosa (1.2421); assay: Antimicrobial activity, broth microdilution MIC; type: cell-based; conditions: modified CLSI broth microdilution, LB medium, 1 × 10^6 CFU/ml, 37 °C, 18 to 20 hours, absorbance 600 nm
Description: as §1

[4] = system: Klebsiella pneumonia (1.1736); assay: Antimicrobial activity, broth microdilution MIC; type: cell-based; conditions: modified CLSI broth microdilution, LB medium, 1 × 10^6 CFU/ml, 37 °C, 18 to 20 hours, absorbance 600 nm
Description: as §1

[5] = system: Bacillus subtilis (1.3376); assay: Antimicrobial activity, broth microdilution MIC; type: cell-based; conditions: modified CLSI broth microdilution, LB medium, 1 × 10^6 CFU/ml, 37 °C, 18 to 20 hours, absorbance 600 nm
Description: as §1

[6] = system: Staphylococcus epidermidis (1.4260); assay: Antimicrobial activity, broth microdilution MIC; type: cell-based; conditions: modified CLSI broth microdilution, LB medium, 1 × 10^6 CFU/ml, 37 °C, 18 to 20 hours, absorbance 600 nm
Description: as §1

[7] = system: L929 mouse fibroblast cells; assay: Cytotoxicity, MTT assay; type: cell-based; conditions: 1 hour
Description: The toxicity of the peptides against L929 mouse fibroblast cells was assessed by a standard MTT assay. L929 mouse fibroblast cells from ATCC (Manassas, VA, USA) were maintained in our laboratory. L929 cells were cultured in RPMI 1640 supplemented with 10% (v/v) FBS, 2 mM L-glutamine, 100 U/ml penicillin and […] streptomycin and maintained in a humidified incubator with 5% CO2 at 37 °C. L929 cells (5 × 10^3cells/well) were seeded in 96-well plates (Corning Inc., Lowell, MA, USA) and incubated overnight. Diluted peptides were added to L929 cells and incubated for 1 hour. Then, 20 μl of MTT (5 mg/ml) solution was added and incubated for 4 hours. The medium was removed, and 150 μl of DMSO was added to each well to dissolve the formazan crystals. The absorbance was measured at 490 nm on a microplate reader (SpectraMax M5; Molecular Devices, Sunnyvale, CA, USA). Cell viabilities were calculated by using the equation (3): […]

Gram-positive bacteria = type: cell-based, S. aureus, S. epidermidis, B. subtilis; conditions: ratio of MHC to GM, Gram-positive bacteria
Description: (§2) The antimicrobial activities of the peptides, indicated by the minimum inhibitory concentrations (MIC), were determined against a range of Gram-negative (Table 3) and Gram-positive bacterial strains (Table 4). The geometric mean of MIC values (GM) from the three strains was calculated to provide an overall evaluation of antimicrobial activity.
(§3) The therapeutic index (TI) is defined as the ratio of the minimum haemolytic concentration (MHC) of peptides to the GM of peptides, and this value was used to evaluate cell selectivity of peptides towards the negatively charged region of bacterial cell membranes over the zwitterionic mammalian cell membranes.
as §1

human erythrocytes = assay: Haemolytic activity; type: cell-based; conditions: 37 °C, 30 min; for haemolysis rate: human erythrocytes, relative to 0.1% Triton X-100
Description: Haemolytic activity of the peptides was assayed by a standard procedure with slight modification. Fresh human erythrocytes were washed three times and resuspended at 1.25% haematocrit in PBS. Forty microlitres PBS-diluted peptide solution was added to a V-bottom 96-well plate (Corning Inc., Lowell, MA, USA), and 160 μl of erythrocytes was added. After incubation at 37 °C for 30 min, the samples were centrifuged, and the absorbance of the supernatant was measured at 450 nm using a multi-well microplate reader (SpectraMax M5; Molecular Devices, Sunnyvale, CA, USA) and compared with the 100% haemolysis caused by 0.1% Triton X-100. The percentage of haemolysis was calculated according to the equation (2): […]

Acinetobacter baumannii = assay: MIC against biofilm-producing clinical isolate; type: cell-based; conditions: biofilm-producing strain, broth microdilution as for the other strains
Description: The antibacterial activities of the peptides against three Gram-negative bacteria and three Gram-positive bacteria strains were measured using a modified version of the Clinical Laboratory and Standards Institute (CLSI) broth microdilution method as described previously. Three Gram-negative bacteria, Escherichia coli (1.8732), Pseudomonas aeruginosa (1.2421), and Klebsiella pneumonia (1.1736), and three Gram-positive bacteria, Staphylococcus aureus (1.8721), Staphylococcus epidermidis (1.4260), and Bacillus subtilis (1.3376), were purchased from the China General Microbiological Culture Collection Centre (CGMCC). […] After incubation at 37 °C for 18 to 20 hours, the absorbance of each well was recorded using a multi-well microplate reader (SpectraMax M5; Molecular Devices, Sunnyvale, CA, USA) at 600 nm. […]
Biofilm attachment assays against Acinetobacter baumannii were performed using a previously described method with some modifications. […] The MICs of AMPs against A. baumannii were evaluated as described above. […] The wells were allowed to dry, and the crystal violet-stained well was re-solubilized with 200 μl of 95% ethanol and shaken for 10 min followed by measurement of the absorbance at 595 nm on a microplate reader (SpectraMax M5; Molecular Devices, Sunnyvale, CA, USA). […]

Gram-negative bacteria = type: cell-based, E. coli, P. aeruginosa, K. pneumoniae; conditions: ratio of MHC to GM, Gram-negative bacteria
Description: as §2, §3, §1

Row | Substance | MIC E. coli [1] | MIC S. aureus [2] | MIC P. aeruginosa [3] | MIC K. pneumoniae [4] | MIC B. subtilis [5] | MIC S. epidermidis [6] | viability of treated L929 cells ([7]; 50 μM peptide) | TI, therapeutic index (Gram-positive bacteria) | haemolysis rate (human erythrocytes; 100 μM peptide) | MIC Acinetobacter baumannii (Acinetobacter baumannii) | TI, therapeutic index (Gram-negative bacteria) | viability of treated L929 cells ([7]; 6.25 μM peptide) | haemolysis rate (human erythrocytes; 3.13 μM peptide) | MHC, minimum haemolytic concentration (human erythrocytes; concentration causing 10% haemolysis of hRBC, 200 μM used when no haemolysis detectable at 100 μM)
1 | RIGSILGRLAKGLPTLKSWIKNR-NH2 [A(A1R, A8R, I17K)] | 12.5 µM | 100 µM | 12.5 µM | 12.5 µM | 12.5 µM | 6.25 µM | 31.4% | 10.08 | 4.4% | 12.5 µM | 16 | – | – | –
2 | AIGSILGALAKGLPTLISWIKNR-NH2 [AR-23, reference compound] | 25 µM | 6.25 µM | 12.5 µM | 12.5 µM | 3.13 µM | 3.13 µM | – | 0.79 | – | 12.5 µM | 0.2 | approximately 10% | 37.9% | 3.13 µM
